Here are results for 15 molecules from ChEMBL document CHEMBL4622885, “Rational design, synthesis and biological evaluation of novel multitargeting anti-AD iron chelators with potent MAO-B inhibitory and antioxidant activity” (Bioorg Med Chem, 2020).

Series [1] deals with PC-12. Briefly: Neuroprotective activity in amyloid beta (1 to 42 residues) (unknown origin)-induced ROS production in rat PC12 cells assessed as intracellular ROS level at 10 uM pretreated for 36 hrs followed by incubation with DCFH-DA for 10 mins by flow cytometry analysis (reference value: 30.7%). It counts as functional.
For series [2], the system named is Mus musculus. Briefly: Antialzheimer activity in scopolamine-induced impairment in ICR mouse assessed as latency time at 15 mg/kg, ip administered once a day for 10 days pretreated with scopolamine for 30 mins and measured at 5th day of training session by Morris water maze test (reference value: 29.4 +/- 5.77 sec). In kind it is functional.
In series [3] the test system is PC-12. The experiment in a line: Neuroprotective activity against amyloid beta (1 to 42 residues) induced cytotoxicity in rat PC12 cells assessed as cell viability at 10 uM incubated for 24 hrs by MTT assay (reference value: 100%). As to conditions: PC-12, 24 h, read-out: Activity. In kind it is functional. For orientation: Tetrazolium dyes change colour on reduction, which living cells bring about.

Series [4] is described as follows: Dissociation constant, pKa1 of compound for protonation of the 4-oxo group in 0.1 M KCl incubated for 1 min by UV-pH titration based spectrophotometric analysis. It counts as physicochemical.
Series [5] deals with Mus musculus. The experiment in a line: Antialzheimer activity in scopolamine-induced impairment in ICR mouse assessed as total distance to platform at 15 mg/kg, ip administered once a day for 10 days pretreated with scopolamine for 30 mins and measured at 5th day of training session by Morris water maze test (reference value: 6.56 +/- 1.27 m). It counts as functional.
A short description of series [6]: Cytotoxicity against rat PC12 cells assessed as cell viability at 25 uM incubated for 24 hrs by MTT assay relative to control. It counts as cell-based, PC-12. As to conditions: read-out: Activity.
Series [7] can be described thus: Cytotoxicity against rat PC12 cells assessed as cell viability at 12.5 uM incubated for 24 hrs by MTT assay relative to control. As to conditions: read-out: Activity. In kind it is cell-based, PC-12.
The nature of series [8]: Metal chelating activity assessed as Fe3+ complex formation by measuring stability constant for Fe(I)3 in using pre Fe+3 complexed compound (FeCl3) in 0.1 M KCl :DMSO solution UV-pH titration based spectrophotometric analysis.
For series [9], the target named is T1, Amine oxidase [flavin-containing] B (Homo sapiens, UniProt P27338).
T1 sequence (P27338 whole entry): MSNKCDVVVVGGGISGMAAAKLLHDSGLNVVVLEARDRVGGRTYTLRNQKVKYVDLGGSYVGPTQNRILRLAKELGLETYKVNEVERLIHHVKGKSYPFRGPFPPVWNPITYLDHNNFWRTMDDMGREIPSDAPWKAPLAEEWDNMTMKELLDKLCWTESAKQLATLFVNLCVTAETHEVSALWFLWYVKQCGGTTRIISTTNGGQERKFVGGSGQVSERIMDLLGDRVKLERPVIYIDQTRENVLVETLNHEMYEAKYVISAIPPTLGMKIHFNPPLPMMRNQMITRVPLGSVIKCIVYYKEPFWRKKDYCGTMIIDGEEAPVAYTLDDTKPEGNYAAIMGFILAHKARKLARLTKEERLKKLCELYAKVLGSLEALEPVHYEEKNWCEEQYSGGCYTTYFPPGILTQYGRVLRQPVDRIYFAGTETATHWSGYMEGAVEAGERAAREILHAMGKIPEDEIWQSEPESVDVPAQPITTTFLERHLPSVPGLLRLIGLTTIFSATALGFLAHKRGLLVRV
The experiment in a line: Inhibition of human recombinant MAO-B expressed in baculovirus infected BTI insect cells using kynuramine as substrate at 100 nM incubated for 10 mins followed by substrate addition by fluorimetric analysis relative to control.

Series [10] is described as follows: Cytotoxicity against rat PC12 cells assessed as cell viability at 6.25 uM incubated for 24 hrs by MTT assay relative to control. The settings on record: read-out: Activity. It counts as cell-based, PC-12.
Series [11] can be described thus: Cytotoxicity against rat PC12 cells assessed as cell viability at 3.13 uM incubated for 24 hrs by MTT assay relative to control. In kind it is cell-based, PC-12. As to conditions: read-out: Activity.
The test system of series [12] is Mus musculus. The experiment in a line: Antialzheimer activity in scopolamine-induced impairment in ICR mouse assessed as total entries at 15 mg/kg, ip administered once a day for 10 days pretreated with scopolamine for 30 mins and measured at 5th day of training session by Morris water maze test (reference value: 2.19 +/- 0.16). It counts as functional.
Series [13] is described as follows: Metal chelating activity assessed as Fe3+ complex formation by measuring stability constant for FeI in using pre Fe+3 complexed compound (FeCl3) in 0.1 M KCl :DMSO solution UV-pH titration based spectrophotometric analysis.
Series [14] concerns the target T1, Amine oxidase [flavin-containing] B. Briefly: Inhibition of human recombinant MAO-B expressed in baculovirus infected BTI insect cells using kynuramine as substrate incubated for 10 mins followed by substrate addition by fluorimetric analysis.
Series [15] in a line: Cytotoxicity against rat PC12 cells assessed as cell viability at 50 uM incubated for 24 hrs by MTT assay relative to control. It counts as cell-based, PC-12. The settings on record: read-out: Activity.
Series [16] can be described thus: Metal chelating activity assessed as iron chelation.
Series [17] in a line: Metal chelating activity assessed as Fe3+ complex formation by measuring stability constant for Fe(I)2 in using pre Fe+3 complexed compound (FeCl3) in 0.1 M KCl :DMSO solution UV-pH titration based spectrophotometric analysis.
The nature of series [18]: Dissociation constant, pKa2 of compound for dissociation of the 3-hydroxyl group in 0.1 M KCl incubated for 1 min by UV-pH titration based spectrophotometric analysis. It counts as physicochemical.

Usually pKa stands for the pH at which an ionisable group is half protonated. Lower therefore signals a group that gives up its proton readily. For orientation: inhibition means the change of the read-out against control, counted positive when it falls. One may read the IC50 as the concentration that gives 50% inhibition. Turning to `COc1ccc2cc(C(=O)NCCn3ccc(=O)c(O)c3C)c(=O)oc2c1`, the Activity in the series with PC-12 [1] was 8.2%; in the series with Mus musculus [5] it was 3.87 m; in the series on Mus musculus [12], 4.63. Besides, the Time in the series on Mus musculus [2] amounted to 14.94 s. The viability at 10 µM in the series with PC-12 [3] turned out to be 88.2%. Moreover, the pKa at 1 min was found to be 3.27 in series [4] and 9.7 in series [18]. The viability at 24 h, 25 µM in series [6] came out at 90.4%. The viability at 24 h, 12.5 µM in series [7] came out at 98%. The figures for the log(activity) in series [8], in series [13] and in series [17] were 35.3, 14.9 and 26.2, respectively. Further, in series [9], the inhibition at 0.1 µM was determined as 65.5%. For the same molecule, the viability at 24 h, 6.25 µM in series [10] amounted to 99.9%. In series [11], the viability at 24 h, 3.13 µM was 98.7%. In [14], the IC50 is 87.9 nM. The viability at 24 h, 50 µM in series [15] was determined as 61.7%. Moreover, in [16], the pFe3+ stood at 18.9.
As to `Nc1c2c(nc3ccccc13)CCCC2` [TACRINE], in the series with Mus musculus [2], the Time amounted to 18.03 s. The Activity is given as 4.28 m in the series on Mus musculus [5] and 4.63 in the series on Mus musculus [12].
As to `C#CCN(C)Cc1ccccc1` [PARGYLINE], in the series on Mus musculus [2], the Time is given as 20.85 s. Also, the figures for the Activity in the series with Mus musculus [5] and in the series with Mus musculus [12] were 4.37 m and 3.81, respectively. In addition, the inhibition at 0.1 µM in [9] was determined as 53%.
For the molecule `Cc1c(O)c(=O)ccn1CCNC(=O)c1cc2ccc(OCc3cccc(F)c3)cc2oc1=O`, the pKa at 1 min in [4] stood at 3.32; in [18], 9.65. Besides, the log(activity) in series [8] worked out at 33.3; in series [13], 14.1; in series [17], 24.7. Besides, the inhibition at 0.1 µM in [9] amounted to 49.1%. Besides, the IC50 in series [14] came out at 108 nM. In [16], the pFe3+ was found to be 17.1.
Turning to `Cc1cccc2cc(C(=O)NCCn3ccc(=O)c(O)c3C)c(=O)oc12`, the figures for the pKa at 1 min in series [4] and in [18] were 3.3 and 9.75, respectively. Moreover, the log(activity) worked out at 35.2 in series [8], 14.4 in series [13] and 25.8 in series [17]. Moreover, the inhibition at 0.1 µM in series [9] stood at 44%. Besides, the IC50 in series [14] was found to be 156 nM. Moreover, the pFe3+ in series [16] was 18.7.
In the case of `CC12CC3CC(C)(C1)CC(N)(C3)C2` [MEMANTINE], the figures for the Activity in the series with PC-12 [1], in the series with Mus musculus [5] and in the series on Mus musculus [12] were 30.51%, 3.52 m and 5.19, respectively. For the same molecule, in the series with Mus musculus [2], the Time is 13.42 s. In addition, the viability at 10 µM in the series with PC-12 [3] was 55.2%.
Turning to `Cc1c(O)c(=O)ccn1CCNC(=O)c1cc2cccc(O)c2oc1=O`, the figures for the pKa at 1 min in series [4] and in series [18] were 3.35 and 9.98, respectively. Further, the values for the log(activity) in [8], in series [13] and in series [17] were 34.8, 14.4 and 26, respectively. Also, the inhibition at 0.1 µM in series [9] stood at 46.2%. For the same molecule, the IC50 in series [14] stood at 158 nM. For the same molecule, the pFe3+ in series [16] amounted to 17.6.
`Cc1c(O)c(=O)ccn1CCNC(=O)c1cc2ccc(OCc3ccc(C(C)C)cc3)cc2oc1=O`: the pKa at 1 min in series [4] was found to be 3.18; in [18], 9.79. For the same molecule, the log(activity) in series [8] came out at 35.6; in series [13], 14.6; in series [17], 25.6. For the same molecule, the inhibition at 0.1 µM in series [9] stood at 45.7%. Also, in series [14], the IC50 was found to be 117 nM. The pFe3+ in series [16] is 19.
As for `Cc1c(O)c(=O)ccn1CCNC(=O)c1cc2ccc(OCc3cc(F)cc(F)c3)cc2oc1=O`, the pKa at 1 min in series [4] was found to be 3.25; in series [18] it was 9.78. The log(activity) worked out at 33.5 in series [8], 14.3 in series [13] and 25 in series [17]. In addition, the inhibition at 0.1 µM in series [9] was 47.4%. Moreover, the IC50 in series [14] was 125 nM. The pFe3+ in [16] was 16.9.
Turning to `Cc1c(O)c(=O)ccn1CCNC(=O)c1cc2cc(O)ccc2oc1=O`, the values for the pKa at 1 min in series [4] and in series [18] were 3.33 and 10.1, respectively. Moreover, the log(activity) in series [8] was 34.1; in [13], 15.1; in series [17] it was 26.5. Also, in [9], the inhibition at 0.1 µM is 46.4%. Also, the IC50 in [14] stood at 188 nM. In addition, the pFe3+ in [16] was 17.2.
Turning to `CCOc1ccc2cc(C(=O)NCCn3ccc(=O)c(O)c3C)c(=O)oc2c1`, the pKa at 1 min was 3.3 in series [4] and 9.75 in series [18]. The log(activity) in series [8] amounted to 34.7; in series [13], 14.2; in [17], 25.6. Also, the inhibition at 0.1 µM in series [9] turned out to be 46.2%. The IC50 in [14] came to 108 nM. In series [16], the pFe3+ is 18.2.
On to `Cc1c(O)c(=O)ccn1CCNC(=O)c1cc2ccccc2oc1=O`, for which the pKa at 1 min in series [4] turned out to be 3.22; in [18] it was 9.59. For the same molecule, the log(activity) in [8] came to 33.9; in series [13], 14; in series [17], 25. In addition, in series [9], the inhibition at 0.1 µM was found to be 46.9%. The IC50 in [14] came out at 173 nM. Besides, the pFe3+ in series [16] turned out to be 17.9.
Turning to `Cc1c(O)c(=O)ccn1CCNC(=O)c1cc2cc(OCc3ccccc3)ccc2oc1=O`, the pKa at 1 min is 3.25 in series [4] and 9.32 in series [18]. Besides, the log(activity) in series [8] was found to be 32; in series [13], 13.7; in [17] it was 24.3. The inhibition at 0.1 µM in [9] came to 47.7%. In addition, the IC50 in [14] worked out at 100 nM. Also, the pFe3+ in series [16] came out at 16.9.
As for `Cc1c(O)c(=O)ccn1CCNC(=O)c1cc2ccc(OCc3cc(F)ccc3F)cc2oc1=O`, the pKa at 1 min in series [4] was 3.2; in series [18], 9.74. Moreover, the results for the log(activity) in [8], in series [13] and in [17] were 33.6, 14.1 and 24.9, respectively. Besides, the inhibition at 0.1 µM in series [9] came out at 49.1%. For the same molecule, the IC50 in series [14] worked out at 115 nM. In addition, the pFe3+ in series [16] came out at 17.2.
Regarding `Cc1c(O)c(=O)ccn1CCNC(=O)c1cc2ccc(OCc3ccc(C(C)(C)C)cc3)cc2oc1=O`, the values for the pKa at 1 min in series [4] and in [18] were 3.17 and 9.73, respectively. The log(activity) came to 36.6 in series [8], 14.8 in [13] and 26.1 in [17]. The inhibition at 0.1 µM in [9] worked out at 45.3%. Further, the IC50 in [14] worked out at 122 nM. Moreover, the pFe3+ in [16] is 20.2.
